Test results from the CheMixHub viscosity set.
Where “and” joins values, the source holds several entries; their conditions need not be identical. Equal values may be shown once.

Columns and labels:
[1] = xn = mol fraction of the nth substance listed

Cc1ccncc1
Conditions	viscosity [mPa·s]
298.15 K, 101.33 kPa	0.86

CCCCCCCCCC(=O)OCC
Conditions	viscosity [mPa·s]
298.15 K, 100 kPa	2.112

OC1CCCCCC1
100 kPa
Conditions	viscosity [mPa·s]
293.15 K	68.77
298.15 K	53.6
303.15 K	43.34
308.15 K	35.61
313.15 K	30.84
318.15 K	26.6

O=C(O)C(Cl)(Cl)Cl
Conditions	viscosity
323.15 K, 101 kPa	4.824 mPa·s (2×) and 5.323 mPa·s and 4.797 mPa·s

CCn1ccnc1
viscosity [mPa·s]
Conditions	298.15 K	308.15 K	318.15 K
100 kPa	1.93	1.59	1.34
101 kPa	1.933	1.594	1.343

CCCC(=O)OCC(COC(=O)CCC)OC(=O)CCC
101.33 kPa
Conditions	viscosity [mPa·s]
298 K	8.68
303 K	7.38
308 K	6.32
313 K	5.49

CCCC(=O)OCC
Conditions	viscosity [mPa·s]
303.15 K, 101 kPa	0.5776

CCCCN
viscosity
Conditions	293.15 K	298.15 K	303.15 K	308.15 K	313.15 K	318.15 K	323.15 K
100 kPa	–	0.468 mPa·s	0.458 mPa·s	–	0.398 mPa·s	–	0.353 mPa·s
101 kPa	0.55 mPa·s and 0.523 mPa·s	0.48 mPa·s and 0.474 mPa·s	–	–	0.401 mPa·s and 0.3922 mPa·s and 0.3891 mPa·s	0.3695 mPa·s	0.3491 mPa·s
101.33 kPa	–	–	–	0.412 mPa·s	0.3891 mPa·s and 0.3887 mPa·s and 0.397 mPa·s	0.3676 mPa·s	0.3486 mPa·s and 0.355 mPa·s

[Cl-].[Cl-].[Cl-].[Sb+3]
Conditions	viscosity [mPa·s]
323.15 K, 101 kPa	3.926

CCCCC(CC)COP(=O)(OCC(CC)CCCC)OCC(CC)CCCC (centres undefined)
Conditions	viscosity [mPa·s]
308.15 K, 101 kPa	8.206

CC[N+](=O)[O-]
viscosity
Conditions	293.15 K	298.15 K	303.15 K	308.15 K	313.15 K	318.15 K
101 kPa	–	–	0.5737 mPa·s	0.5507 mPa·s	–	0.5009 mPa·s
101.33 kPa	0.68 mPa·s and 0.679 mPa·s and 0.679 mPa·s	0.638 mPa·s	0.605 mPa·s and 0.605 mPa·s	–	0.544 mPa·s and 0.544 mPa·s	–

CCCCN + CO
viscosity [mPa·s], [1]
Conditions	298.15 K	303.15 K	313.15 K	323.15 K
100 kPa, x2 = 0.1	0.505	–	–	–
100 kPa, x2 = 0.203	0.552	–	–	–
100 kPa, x2 = 0.299	0.599	–	–	–
100 kPa, x2 = 0.399	0.653	–	–	–
100 kPa, x2 = 0.501	0.707	–	–	–
100 kPa, x2 = 0.598	0.747	–	–	–
100 kPa, x2 = 0.697	0.761	–	–	–
100 kPa, x2 = 0.796	0.732	–	–	–
100 kPa, x2 = 0.9	0.65	–	–	–
101 kPa, x2 = 0.1159	–	0.47	0.409	0.357
101 kPa, x2 = 0.2309	–	0.494	0.425	0.369
101 kPa, x2 = 0.3289	–	0.518	0.439	0.377
101 kPa, x2 = 0.426	–	0.549	0.458	0.386
101 kPa, x2 = 0.5325	–	0.584	0.482	0.397
101 kPa, x2 = 0.6186	–	0.607	0.498	0.405
101 kPa, x2 = 0.7296	–	0.617	0.508	0.411
101 kPa, x2 = 0.8167	–	0.602	0.502	0.41
101 kPa, x2 = 0.9076	–	0.562	0.481	0.408

Cc1ccncc1 + O
Conditions	viscosity [mPa·s]
[1], 318.15 K, 101 kPa, x1 = 0.4	1.365

CCCCN + CCCO
viscosity [mPa·s], [1]
Conditions	298.15 K	303.15 K	313.15 K
100 kPa, x2 = 0.1	0.534	–	–
100 kPa, x2 = 0.198	0.612	–	–
100 kPa, x2 = 0.301	0.711	–	–
100 kPa, x2 = 0.417	0.846	–	–
100 kPa, x2 = 0.501	0.965	–	–
100 kPa, x2 = 0.6	1.117	–	–
100 kPa, x2 = 0.695	1.273	–	–
100 kPa, x2 = 0.786	1.451	–	–
100 kPa, x2 = 0.925	1.76	–	–
101.33 kPa, x1 = 0.095	–	1.64	1.281
101.33 kPa, x1 = 0.1888	–	1.48	1.159
101.33 kPa, x1 = 0.2913	–	1.286	1.018
101.33 kPa, x1 = 0.3804	–	1.129	0.9048
101.33 kPa, x1 = 0.5153	–	0.9113	0.7453
101.33 kPa, x1 = 0.6163	–	0.7686	0.6425
101.33 kPa, x1 = 0.7142	–	0.6509	0.5578
101.33 kPa, x1 = 0.788	–	0.5832	0.5009
101.33 kPa, x1 = 0.9022	–	0.4992	0.4349

CCC(C)(C)C
Conditions	viscosity [mPa·s]
298 K, 101.33 kPa	0.3406

CCCC(=O)OCC(COC(=O)CCC)OC(=O)CCC + CCO
viscosity [mPa·s], [1], 101.33 kPa
Conditions	x1 = 0.1	x1 = 0.2	x1 = 0.3	x1 = 0.4	x1 = 0.5	x1 = 0.6	x1 = 0.7	x1 = 0.8	x1 = 0.9
298 K	1.59	2.22	2.92	3.63	4.38	5.15	5.97	6.78	7.71
303 K	1.44	1.98	2.58	3.19	3.81	4.48	5.14	5.82	6.58
308 K	1.31	1.78	2.29	2.81	3.35	3.91	4.48	5.04	5.67
313 K	1.21	1.61	2.06	2.51	2.97	3.43	3.92	4.4	4.92

CCCC(=O)OCC(COC(=O)CCC)OC(=O)CCC + CCCCO
viscosity [mPa·s], [1], 101.33 kPa
Conditions	x1 = 0.1	x1 = 0.2	x1 = 0.3	x1 = 0.4	x1 = 0.5	x1 = 0.6	x1 = 0.7	x1 = 0.8	x1 = 0.9
298 K	2.61	3	3.46	3.99	4.58	5.23	5.96	6.73	7.66
303 K	2.31	2.64	3.03	3.48	3.97	4.54	5.14	5.77	6.54
308 K	2.04	2.33	2.68	3.06	3.45	3.95	4.45	5.01	5.64
313 K	1.83	2.08	2.38	2.7	3.06	3.48	3.9	4.37	4.89
